Source: publication PMC10353446, “Pharmacokinetics of SPR206 in Plasma, Pulmonary Epithelial Lining Fluid, and Alveolar Macrophages following Intravenous Administration to Healthy Adult Subjects” (Antimicrobial Agents and Chemotherapy, 2023)
Where a SMILES comes first, the peptide text is derived from it. Bridges are numbered along the chain shown (N, C = ends). [ ]: non-standard residue; d: D form. The star is where a group is joined. X1 = NC[C@@H](CC(=O)*)c1cccc(Cl)c1; Dab = NCC[C@H](N)C(=O)O; Dap = NC[C@H](N)C(=O)O

What was measured:
[1] = Alveolar macrophage (AM) pharmacokinetics of SPR206 from BAL cell pellet; format: in vivo, human
Protocol: (§1) This was a Phase 1, single-center, multiple-dose, open-label PK study in healthy adult male and female subjects. Subjects received three 100 mg doses of SPR206 administered q8h as a 1-h IV infusion. Three consecutive doses were sufficient to achieve steady-state based on a previous Phase 1 study in healthy subjects ([36]). A screening evaluation to determine eligibility for enrollment into the study was performed within 28 days of initial dosing. Subjects who met inclusion and exclusion criteria returned to the study unit 1 day before dosing (Day -1). Subjects who met inclusion and exclusion criteria were confined to the study site from Day -1 (1 day prior to start of dosing) and remained in the study site through completion of all scheduled procedures including collection of the last PK sample and bronchoscopy procedures along with safety evaluations (Day 2). Each subject underwent 1 bronchoscopy with BAL at 2, 3, 4, 6, or 8 h after the start of the third IV infusion. Subjects were required to return for a follow-up visit on Day 7 (+2 days) after discharge from the study site. The maximum duration of participation for each subject was up to 39 days (up to 28 days for Screening, 2 days of confinement, and up to 9 days for follow-up).
(§2) Subjects were assigned to 1 of 5 bronchoscopy sampling times at 2, 3, 4, 6, or 8 (± 10 min) after the third IV infusion of SPR206. Each subject underwent 1 standardized bronchoscopy and BAL on Day 2 at the assigned time. A blood sample to determine plasma concentrations of SPR206 and urea was obtained during the bronchoscopy procedure at each BAL sampling time (approximating the time of collection of a second aspirate of BAL). Detail descriptions of the outpatient bronchoscopy, BAL procedures, and the handling, processing, and storage of samples have been previously described ([58][–][60]).
(§3) The concentrations of SPR206 in BAL and in cell pellets were determined by Keystone Bioanalytical, Inc. using a validated LC-MS/MS method. ELF concentrations were calculated by the urea dilution method ([61], [62]). AM concentrations were determined from cell pellet drug concentrations, cell count in BAL fluid, and macrophage cell volume ([62]). The calibration curves for SPR206 were linear over a range from 2 to 1,000 ng/mL. The inter-assay precision (%CV) and accuracy (%RE) for SPR206 were 2.81% to 15.84% and -4.02% to 1.51%, respectively. The intra-assay precision (%CV) and accuracy (%RE) for SPR206 were 1.43% to 18.59% and -17.44% to 6.28%, respectively.
(§4) Actual BAL samples were collected outside the protocol-specified sampling time windows. Thus, an updated method was utilized where the PK parameters for ELF or AM were calculated from composite concentration profiles of ELF or AM, respectively, based on the 27 subjects in the BAL PK population. Some blood samples were collected outside of the planned sampling windows, and therefore, individual plasma AUC0-8 was calculated first and the mean population plasma AUC0-8 was derived from all individual AUC0-8 values.
Concentrations of SPR206 were summarized separately for plasma, ELF, and AM by nominal time point using descriptive statistics. The mean concentrations of SPR206 in BAL fluid obtained at the different BAL fluid sampling times (e.g., 2, 3, 4, 6, and 8 h) were used to estimate the AUC0-8 for SPR206 in plasma, ELF, and AM. The concentration at the final sampling time (8 h) also served as the time zero value for determining the AUC0-8 value of each matrix using Phoenix WinNonlin software (version 8.3, Certara Inc.). The ratios of the AUC0-8 of ELF or AM to the AUC0-8 of plasma (total and unbound) were calculated. Plasma protein binding analyses were not conducted as part of this study. The value used for the unbound fraction of SPR206 in plasma was 0.914 (Spero Therapeutics, Inc., data on file). The measured concentrations in ELF and AM represented unbound concentrations, since only unbound plasma fractions are considered to penetrate the lung compartments. […]

[2] = in vivo; cited from earlier work
[3] = Safety and tolerability in healthy subjects (Phase 1 BAL study); format: in vivo, human
Protocol: as §1
Subjects were continuously monitored during the bronchoscopy. Vital signs (blood pressure, heart rate, and respiratory rate) were recorded prior to the scheduled bronchoscopy time and at 15 min and 1 h following the end of bronchoscopy. Subjects were kept under observation for 2 to 3 h post-bronchoscopy for safety evaluations. Continuous pulse oximetry was conducted from the beginning of preparation of the subject for bronchoscopy until the post-procedure oxygen saturation was at least 93% on room air. Pulse oximetry was extended if a clinically significant increase in heart rate or cardiac rhythm abnormalities were detected. Other safety assessments included physical examinations, clinical laboratory monitoring (hematology, blood chemistry, and urinalysis), 12-lead ECG, and adverse event recording.

clinical = conditions: human, in vivo, iv, 100 mg
Protocol: as §1
Blood samples for determining SPR206 plasma concentrations were collected within 60 min pre-dose (0 h) prior to second and third doses of SPR206 only and at 2, 3, 4, 6, and 8 h after the start of the third dose of SPR206.
Concentrations of SPR206 in plasma were determined by a validated liquid chromatography with tandem mass spectrometry (LC-MS/MS) assay performed at QPS, LLC. For plasma, the assay range was 50 to 50,000 ng/mL. In plasma, intraday precision (% coefficient of variation) ranged from 1.3% to 7.7%, and accuracy (% relative error) ranged from -1.2% to 9.5%. Interday precision ranged from 2.9% to 5.3% and accuracy ranged from 1.6% to 6.0%.
PK analysis of SPR206 plasma concentrations was determined with noncompartmental PK analysis using Phoenix WinNonlin software (version 8.3, Certara Inc.). PK parameters were Tmax, Cmax, Cmin, and AUC0-8.
as §4
Concentrations of SPR206 were summarized separately for plasma, ELF, and AM by nominal time point using descriptive statistics. The mean concentrations of SPR206 in BAL fluid obtained at the different BAL fluid sampling times (e.g., 2, 3, 4, 6, and 8 h) were used to estimate the AUC0-8 for SPR206 in plasma, ELF, and AM. The concentration at the final sampling time (8 h) also served as the time zero value for determining the AUC0-8 value of each matrix using Phoenix WinNonlin software (version 8.3, Certara Inc.). The ratios of the AUC0-8 of ELF or AM to the AUC0-8 of plasma (total and unbound) were calculated. Plasma protein binding analyses were not conducted as part of this study. The value used for the unbound fraction of SPR206 in plasma was 0.914 (Spero Therapeutics, Inc., data on file). The measured concentrations in ELF and AM represented unbound concentrations, since only unbound plasma fractions are considered to penetrate the lung compartments. Individual plasma concentration-time profile versus time and arithmetic mean concentration (±SD) versus time plots were presented for the concentration-time data.

[4] = Epithelial lining fluid (ELF) pharmacokinetics of SPR206 by bronchoscopy with BAL, urea dilution method; format: in vivo, human
Protocol: as §1, §2, §3
The concentration of urea in plasma and BAL fluid supernatants was determined using a validated LC/MS/MS method from Keystone Bioanalytical, Inc. Thirty human plasma and 30 BAL fluid samples were assayed for urea concentrations. A total of 10 samples for both plasma and BAL fluid (33.3%) were selected for testing, and the calculated assay variability was within 20%. The calibration curve for the urea assay in plasma was linear over the range from 100 to 3,000 μg/mL. The inter-assay precision (%CV) and accuracy (%RE) for SPR206 were 1.98% to 3.37% and -8.17% to 4.13%, respectively. The intra-assay precision (%CV) and accuracy (%RE) for SPR206 were 0.56% to 5.60% and -10.21% to 8.54%, respectively. The calibration range of the urea assay for BAL fluid was linear (r^2 > 0.998) over the range of 0.2 to 10 μg/mL. The inter-assay precision (%CV) and accuracy (%RE) for SPR206 were 6.40% to 9.77% and -3.22% to 1.47%, respectively. The intra-assay precision (%CV) and accuracy (%RE) for SPR206 were 0.96% to 12.08% and -11.30% to 9.15%, respectively.
Actual BAL samples were collected outside the protocol-specified sampling time windows. Thus, an updated method was utilized where the PK parameters for ELF or AM were calculated from composite concentration profiles of ELF or AM, respectively, based on the 27 subjects in the BAL PK population. […]

[5] = cited from earlier work
kidney cell = conditions: cited from earlier work
[6] = in vivo, cited from earlier work
[7] = human, in vivo, iv; cited from earlier work
[8] = BAL sampling time 2 hours post-dose
[9] = BAL sampling time 2 hours post-dose, unbound fraction 0.914
[10] = BAL sampling time 3 hours post-dose
[11] = BAL sampling time 3 hours post-dose, unbound fraction 0.914
[12] = BAL sampling time 4 hours post-dose
[13] = BAL sampling time 4 hours post-dose, unbound fraction 0.914
[14] = BAL sampling time 6 hours post-dose
[15] = BAL sampling time 6 hours post-dose, unbound fraction 0.914
[16] = BAL sampling time 8 hours post-dose
[17] = BAL sampling time 8 hours post-dose, unbound fraction 0.914
[18] = both sexes, human, in vivo, iv, 100 mg

CC(C)C[C@@H]1NC(=O)[C@@H](Cc2ccccc2)NC(=O)[C@H](CCN)NC(=O)[C@@H](NC(=O)[C@H](CN)NC(=O)[C@@H](NC(=O)C[C@H](CN)c2cccc(Cl)c2)[C@@H](C)O)CCNC(=O)[C@H]([C@@H](C)O)NC(=O)[C@H](CCN)NC(=O)[C@H](CCN)NC1=O [SPR206] (X1-T[Dap][Dab][Dab][dF]L[Dab][Dab]T; lactam 3-C (inferred))
Ratio AM to total plasma concentration, arithmetic mean ± SD [1, 8]: 0.206 ± 0.114
Ratio AM to unbound plasma concentration, arithmetic mean ± SD [1, 9]: 0.226 ± 0.124
Ratio AM to total plasma concentration, arithmetic mean ± SD [1, 10]: 0.184 ± 0.065
Ratio AM to unbound plasma concentration, arithmetic mean ± SD [1, 11]: 0.201 ± 0.071
Ratio AM to total plasma concentration, arithmetic mean ± SD [1, 12]: 0.223 ± 0.089
Ratio AM to unbound plasma concentration, arithmetic mean ± SD [1, 13]: 0.244 ± 0.097
Ratio AM to total plasma concentration, arithmetic mean ± SD [1, 14]: 0.519 ± 0.223
Ratio AM to unbound plasma concentration, arithmetic mean ± SD [1, 15]: 0.568 ± 0.244
Ratio AM to total plasma concentration, arithmetic mean ± SD [1, 16]: 0.503 ± 0.192
Ratio AM to unbound plasma concentration, arithmetic mean ± SD [1, 17]: 0.550 ± 0.210
Ratio of AUC0-8 of AM to AUC0-8 of total plasma ([1]; after third 100 mg IV dose, plasma n = 34, AM n = 27): 0.300
Ratio of AUC0-8 of AM to AUC0-8 of unbound plasma ([1]; after third 100 mg IV dose, plasma n = 34, AM n = 27, unbound fraction 0.914): 0.328
AUC(0-t) [1, 18]: 6030 ng·h/mL
Cmax [1, 18]: 861 ng/mL
Tmax [1, 18]: 6.4 h
Exposure in the kidney [2]: lower exposure in the kidney than polymyxin B
Deaths, serious AEs, AEs leading to discontinuation ([3]; 100 mg IV q8h x 3 doses): No deaths, serious AEs, or AEs leading to study drug discontinuation or study discontinuation were reported
TEAEs reported as mild in severity (of 40 reported TEAEs) ([3]; human, in vivo, iv): 85.0%
Clinical laboratory parameters including blood urea nitrogen, serum creatinine, estimated creatinine clearance ([3]; human, in vivo, iv, 100 mg): No clinically significant abnormalities
Vd (clinical; both sexes): 19.8 L
half-life (clinical; both sexes): 3.6 h
AUC(0-t) (clinical; both sexes, AUC0-8, geometric mean (CV%)): 19800 ng·h/mL
Cmax (clinical; both sexes, arithmetic mean (SD)): 4400 ng/mL
Cmax (clinical; both sexes, geometric mean (CV%)): 4300 ng/mL
Tmax (clinical; both sexes, Median time to peak plasma concentrations (Tmax)): 2 h
Tmax (clinical; both sexes, Tmax range): 1.8 to 2.9 h
Tmax (clinical; both sexes, Tmax, arithmetic mean (SD)): 2.1 h
Tmax (clinical; both sexes, Tmax, geometric mean (CV%)): 2.1 h
AUC0-8, geometric mean (CV%) (clinical; both): 19817.9 (17.9) h*ng/mL
Cmax, geometric mean (CV%) (clinical; both): 4333.4 (17.2) ng/mL
t1/2, geometric mean (CV%) (clinical; both): 3.6 (13.5) hours
Vz, geometric mean (CV%) (clinical): 19502.1 (18.1) mL
Ratio ELF to total plasma concentration, arithmetic mean ± SD [4, 8]: 0.183 ± 0.032
Ratio ELF to unbound plasma concentration, arithmetic mean ± SD [4, 9]: 0.200 ± 0.035
Ratio ELF to total plasma concentration, arithmetic mean ± SD [4, 10]: 0.199 ± 0.066
Ratio ELF to unbound plasma concentration, arithmetic mean ± SD [4, 11]: 0.218 ± 0.072
Ratio ELF to total plasma concentration, arithmetic mean ± SD [4, 12]: 0.190 ± 0.067
Ratio ELF to unbound plasma concentration, arithmetic mean ± SD [4, 13]: 0.208 ± 0.074
Ratio ELF to total plasma concentration, arithmetic mean ± SD [4, 14]: 0.428 ± 0.176
Ratio ELF to unbound plasma concentration, arithmetic mean ± SD [4, 15]: 0.469 ± 0.192
Ratio ELF to total plasma concentration, arithmetic mean ± SD [4, 16]: 0.347 ± 0.138
Ratio ELF to unbound plasma concentration, arithmetic mean ± SD [4, 17]: 0.380 ± 0.151
Ratio of AUC0-8 of ELF to AUC0-8 of total plasma ([4]; after third 100 mg IV dose, plasma n = 34, ELF n = 27): 0.242
Ratio of AUC0-8 of ELF to AUC0-8 of unbound plasma ([4]; after third 100 mg IV dose, plasma n = 34, ELF n = 27, unbound fraction 0.914): 0.264
AUC(0-t) [4, 18]: 4860 ng·h/mL
Cmax [4, 18]: 736 ng/mL
Tmax [4, 18]: 2.2 h
Unbound fraction in plasma [5]: 0.914
Kidney cell cytotoxicity (kidney cell): reduced kidney cell cytotoxicity

colistin
Lung concentrations ([6]; iv): undetectable
Lung concentrations relative to MIC50 for P. aeruginosa [6]: below the MIC50 for P. aeruginosa
Levels in BAL fluid [7]: undetectable levels
